pIC50: −log10 of the molar value. A value given as a limit tells only on which side of the number the result lay.

This assay deals with T1, TAK1-TAB1 fusion protein (Homo sapiens, UniProt O43318).
T1 construct: purchased Upstate 14-600
T1 sequence (O43318 with tags, fused parts or gaps limits assumed): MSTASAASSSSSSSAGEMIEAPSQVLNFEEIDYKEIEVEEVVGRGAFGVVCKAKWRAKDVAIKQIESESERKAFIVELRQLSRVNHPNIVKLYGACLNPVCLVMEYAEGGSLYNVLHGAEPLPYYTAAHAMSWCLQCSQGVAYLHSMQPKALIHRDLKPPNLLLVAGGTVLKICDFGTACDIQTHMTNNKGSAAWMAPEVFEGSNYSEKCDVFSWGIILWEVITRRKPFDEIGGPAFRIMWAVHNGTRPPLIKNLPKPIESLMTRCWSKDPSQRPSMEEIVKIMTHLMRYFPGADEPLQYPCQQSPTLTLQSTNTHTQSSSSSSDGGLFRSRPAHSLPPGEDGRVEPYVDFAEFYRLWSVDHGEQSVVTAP
Put plainly: In vitro TAK1 kinase assay (33P-ATP, casein substrate). It counts as biochemical. The conditions noted are these: semi-quantitative score, at least two independent experiments. As for the experimental part:
For assessing TAK1 inhibition, active TAK1-TAB1 fusion protein was used from Upstate (Cat. No, 14-600). Kinase reactions are set up in 96-well polypropylene plates in 25 μL containing 0.5 mU TAK1-TAB1 fusion protein, […], 0.01 μCi/μL [^33P]-γ-ATP, 0.1 mg/mL casein substrate in 1× reaction buffer containing 10 mM MOPS pH 7.0, 1 mM EDTA.
Starting from the compound master stocks (all at 10 mM concentration in 100% DMSO) a 3-fold serial dilution is made in 96-well plates in 100% DMSO. Plates are further diluted […] in H2O containing 3.5% DMSO, to obtain an intermediate work stock with compounds at 5× the final assay concentration in 5% DMSO.
5 μL of the intermediate stock is transferred into V-bottom 96 well polypropylene plates and 11 μL of Enzyme mix is added. Enzyme mix is made by combining 5 μL 5× reaction buffer ([…] pH 7.0, 1 mM EDTA), 5 μL casein (Sigma) diluted in H2O to 0.5 mg/mL and 1 μL of TAK1-TAB1 fusion protein that was prediluted to 0.5 mU/μL in 1× enzyme dilution buffer (20 mM MOPS pH 7.0, 0.1 mM EDTA, 0.01% Brij-35, 5% glycerol, 1 mM DTT, 1 mg/ml BSA).
The reactions are started by the addition of 9 μL of mixture containing ATP (20.83 uM) and [^33P]-γ-ATP (0.028 μCi/μL).
The assay is stopped 90 minutes after incubation at 30° C. by the addition of 25 μL phosphoric acid (150 mM). The label incorporated into the casein substrate is separated from labeled unincorporated ATP by filtration onto 96-well filter plates using a harvester device. After 6 washes with 75 mM phosphoric acid, the bottom of the filter plates are sealed, and incorporated label is quantified after addition of 40 μL scintillation fluid using TopCount.
Based on these percent inhibition data obtained in at least two independent experiments for the compounds, compounds are ranked using semi-quantitative scores. Table A below lists a number of compounds which have been or can be prepared according to the synthetic methods described herein. Semi-quantitative score: • *>3001 nM • ** 1001-3000 nM • *** 101-1000 nM • ****<100 nM
A word on the pIC50: it is the IC50 on a negative log10 scale, so that one unit is a factor of ten. `CC(C)N1CCN(c2ccc(Nc3ccc(-c4cc[nH]c(=O)c4)n4ccnc34)cc2Cl)CC1` [Compound 105] had a pIC50 of 6.00 to 7.00. The result for `C[C@@H]1CN(c2ccc(Nc3ccc(-c4cc[nH]c(=O)c4)n4ccnc34)cc2)C[C@H](C)N1C` [Compound 98] reads 6.00 to 7.00; that for `C[C@@H]1CN(C)[C@@H](C)CN1c1ccc(Nc2ccc(-c3cc[nH]c(=O)c3)n3ccnc23)cc1F` [Compound 97], 6.00 to 7.00; that for `O=c1cc(-c2ccc(Nc3ccc(N4CCCC(F)(F)C4)cc3)c3nccn23)cc[nH]1` [Compound 118, 4-{8-[4-(3,3-Difluoro-piperidin-1-yl)-phenylamino]-imidazo[1,2a]pyridin-5-yl}-1H-pyridin-2-one], under 5.52. Compound `CC1CCCN(C2CCN(c3ccc(Nc4ccc(-c5cc[nH]c(=O)c5)n5ccnc45)cc3)CC2)C1` (stereo not shown) [Compound 122, 4-{8-[4-(3-Methyl-[1,4′]bipiperidinyl-1′-yl)-phenylamino]-imidazo[1,2-a]pyridin-5-yl}-1H-pyridin-2-one] showed a negative logarithm of the IC50 (pIC50) of 6.00 to 7.00. With `O=C(NCCN1CCCCC1)c1ccc(Nc2ccc(-c3ccc4c(c3)CNC4=O)n3ccnc23)cc1` [Compound 56, 4-(5-(1-oxoisoindolin-5-yl)imidazo[1,2-a]pyridin-8-ylamino)-N-(2-(piperidin-1-yl)ethyl)benzamide], the negative logarithm of the IC50 (pIC50) was 6.00 to 7.00. `CC1CCN(C2CCN(c3ccc(Nc4ccc(-c5cc[nH]c(=O)c5)n5ccnc45)cc3)CC2)CC1` [Compound 121, 4-{8-[4-(4-Methyl-[1,4′]bipiperidinyl-1′-yl)-phenylamino]-imidazo[1,2-a]pyridin-5-yl}-1H-pyridin-2-one] showed a pIC50 of 6.00 to 7.00. Under `C[C@@H]1CN(c2ccc(Nc3ccc(-c4cc[nH]c(=O)c4)n4ccnc34)cc2)C[C@H](C)O1` [Compound 113, 4-{8-[4-((2R,6S)-2,6-Dimethyl-morpholin-4-yl)-phenylamino)-imidazo[1,2-a]pyridin-5-yl}-1H-pyridin-2-one] stands 5.52 to 6.00; under `C[C@@H]1CN(c2ccc(Nc3ccc(-c4cc[nH]c(=O)c4)n4ccnc34)cc2F)C[C@H](C)N1C` [Compound 101], 6.00 to 7.00; under `O=C1NCc2cc(-c3ccc(Nc4ccc(-n5cccn5)cc4)c4nccn34)ccc21` [Compound 30, 5-(8-(4-(1H-pyrazol-1-yl)phenylamino)imidazo[1,2-a]pyridin-5-yl)isoindolin-1-one], 5.52 to 6.00. In turn, `O=C(c1ccc(Nc2ccc(-c3cc[nH]c(=O)c3)n3ccnc23)cc1)N1CCC(N2CCCCC2)CC1` [Compound 102] had a pIC50 of over 7.00. For `O=c1cc(-c2ccc(Nc3ccc(N4CCN5CCCCC5C4)cc3)c3nccn23)cc[nH]1` (stereo not shown) [Compound 114, 4-{8′-[4-(Octahydro-pyrido[1,2-a]pyrazin-2-yl)-phenylamino]-imidazo[1,2-a]pyridin-5-yl}-1H-pyridin-2-one], the pIC50 is 6.00 to 7.00. In the case of `c1cn2c(-c3cn[nH]c3)ccc(Nc3ccc(N4CCC(N5CCCCC5)CC4)cc3)c2n1` [Compound 119, (4[1,4′]Bipiperidinyl-1′-yl-phenyl)-[5-(1H-pyrazol-4-yl)-imidazo[1,2-a]pyridin-8-yl]-amine], the pIC50 was 6.00 to 7.00. In turn, `CC1CCCN(C2CCN(C(=O)c3ccc(Nc4ccc(-c5ccc6c(c5)CNC6=O)n5ccnc45)cc3)CC2)C1` (stereo not shown) [Compound 54, 5-{8-[4-(3-Methyl-[1,4′]bipiperidinyl-1′-carbonyl)-phenylamino]-imidazo [1,2-a]pyridin-5-yl}-2,3-dihydro-isoindol-1-one] showed a pIC50 of 6.00 to 7.00.

`COCCNC(=O)c1ccc(Nc2ccc(-c3ccc4c(c3)CNC4=O)n3ccnc23)cc1` [Compound 58, N-(2-methoxyethyl)-4-(5-(1-oxoisoindolin-5-yl)imidazo[1,2-a]pyridin-8-ylamino)benzamide] gave a pIC50 of 6.00 to 7.00. The result for `O=C(NCc1cccc(-n2cccc2)c1)c1ccc(Nc2ccc(-c3ccc4c(c3)CNC4=O)n3ccnc23)cc1` [Compound 35, 4-[5-(1-Oxo-2,3-dihydro-1H-isoindol-5-yl)-imidazo[1,2-a]pyridin-8-ylamino]-N-(3-pyrrol-1-yl-benzyl)-benzamide] reads 6.00 to 7.00; that for `O=C1NCc2cc(-c3ccc(Nc4ccc(-n5cncn5)cc4)c4nccn34)ccc21` [Compound 31, 5-(8-(4-(1H-1,2,4-triazol-1-yl)phenylamino)imidazo[1,2-a]pyridin-5-yl)isoindolin-1-one], 6.00 to 7.00; that for `CCN1CCN(c2ccc(Nc3ccc(-c4cc[nH]c(=O)c4)n4ccnc34)cc2Cl)CC1` [Compound 104], 6.00 to 7.00. In the case of `O=c1cc(-c2ccc(Nc3ccc(N4CCS(=O)(=O)CC4)cc3)c3nccn23)cc[nH]1` [Compound 112, 4-{8-[4-(1,1-Dioxo-1lambda*6*- thiomorpholin-4-yl)-phenylamino]-imidazo[1,2-a]pyridin-5-yl}-1H-pyridin-2-one], the pIC50 is under 5.52.

With `O=c1cc(-c2ccc(Nc3ccc(N4CCCCC4)cc3)c3nccn23)cc[nH]1` [Compound 115, 4-[8-(4-Piperidin-1-yl-phenylamino)-imidazo[1,2-a]pyridin-5-yl]-1H-pyridin-2-one], the pIC50 is 5.52 to 6.00.

The compound `O=c1cc(-c2ccc(Nc3ccc(N4CCN(CC(F)F)CC4)cc3)c3nccn23)cc[nH]1` [Compound 110, 4-(8-{4-[4-(2,2-Difluoro-ethyl)-piperazin-1-yl]-phenylamino}-imidazo[1,2-a]pyridin-5-yl)-1H-pyridin-2-one] gave a pIC50 of under 5.52. As for `CC(=O)NCCNC(=O)c1ccc(Nc2ccc(-c3ccc4c(c3)CNC4=O)n3ccnc23)cc1` [Compound 57, N-(2-acetamidoethyl)-4-(5-(1-oxoisoindolin-5-yl)imidazo[1,2-a]pyridin-8-ylamino)benzamide], the pIC50 was 6.00 to 7.00.

In turn, `O=c1cc(-c2ccc(Nc3ccc(C4CCNCC4)cc3)c3nccn23)cc[nH]1` [Compound 100] gave a pIC50 of 6.00 to 7.00.

In turn, `CC(C)N1CCN(c2ccc(Nc3ccc(-c4ccc(O)c(F)c4)n4ccnc34)cc2)CC1` [Compound 93] gave a pIC50 of 5.52 to 6.00. With `C[C@@H]1CN(C)[C@@H](C)CN1c1ccc(Nc2ccc(-c3cc[nH]c(=O)c3)n3ccnc23)cc1` [Compound 99], the negative-log IC50 (pIC50) was 6.00 to 7.00.

For the compound `O=c1cc(-c2ccc(Nc3ccc(N4CCC(N5CCC(O)CC5)CC4)cc3)c3nccn23)cc[nH]1` [Compound 123, 4-{8-[4-(4-Hydroxy-[1,4′]bipiperidinyl-1′-yl)-phenylamino]-imidazo[1,2-a]pyridin-5-yl}-1H-pyridin-2-one], the pIC50 was 5.52 to 6.00. Turning to `O=c1cc(-c2ccc(Nc3ccc(N4CCC(F)(F)CC4)cc3)c3nccn23)cc[nH]1` [Compound 117, 4-{8-[4-(4,4-Difluoro-piperidin-1-yl)-phenylamino]-imidazo[1,2-a]pyridin-5-yl}-1H-pyridin-2-one], the pIC50 is under 5.52. The result for `CC1CCN(C2CCN(C(=O)c3ccc(Nc4ccc(-c5ccc6c(c5)CNC6=O)n5ccnc45)cc3)CC2)CC1` [Compound 55, 5-{8-[4-(4-Methyl-[1,4′]bipiperidinyl-1′-carbonyl)-phenylamino]-imidazo [1,2-a]pyridin-5-yl}-2,3-dihydro-isoindol-1-one] reads 6.00 to 7.00. The result for `O=c1cc(-c2ccc(Nc3ccc(N4CCC(F)CC4)cc3)c3nccn23)cc[nH]1` [Compound 116, 4-{8-[4-(4-Fluoro-piperidin-1-yl)-phenylamino]-imidazo[1,2-a]pyridin-5-yl}-1H-pyridin-2-one] reads 5.52 to 6.00. Regarding `CC(C)N1CCN(c2ccc(Nc3ccc(-c4cc[nH]c(=O)c4)n4ccnc34)cc2F)CC1` [Compound 103], the negative-log IC50 (pIC50) was 6.00 to 7.00. The result for `O=c1cc(-c2ccc(Nc3ccc(N4CCCC4)c(Cl)c3)c3nccn23)cc[nH]1` [Compound 125, 4-[8-(3-Chloro-4-pyrrolidin-1-yl-phenylamino)-imidazo[1,2-a]pyridin-5-yl]-1H-pyridin-2-one] reads under 5.52.

The record behind these values is patent publication US20120010206A1, “IMIDAZOLOPYRIDINE COMPOUNDS USEFUL FOR THE TREATMENT OF DEGENERATIVE AND INFLAMMATORY DISEASES” (priority 2006, published 2012).
